Tests used:
[1] = target: T1, PfYRS (Plasmodium falciparum, UniProt Q8IAR7); assay: Tyrosine acylation of cognate tRNATyr by PfYRS; type: biochemical
[2] = target: T2, HsYRS (Homo sapiens, UniProt P54577); assay: Tyrosine acylation of cognate tRNATyr by HsYRS; type: biochemical; details: YRS 0.25 μM, ATP 10 μM, 37°C 1 h
T2 construct: made in house; host or cells: E. coli BL21(DE3), pET-11a
T2 sequence (P54577 1-364): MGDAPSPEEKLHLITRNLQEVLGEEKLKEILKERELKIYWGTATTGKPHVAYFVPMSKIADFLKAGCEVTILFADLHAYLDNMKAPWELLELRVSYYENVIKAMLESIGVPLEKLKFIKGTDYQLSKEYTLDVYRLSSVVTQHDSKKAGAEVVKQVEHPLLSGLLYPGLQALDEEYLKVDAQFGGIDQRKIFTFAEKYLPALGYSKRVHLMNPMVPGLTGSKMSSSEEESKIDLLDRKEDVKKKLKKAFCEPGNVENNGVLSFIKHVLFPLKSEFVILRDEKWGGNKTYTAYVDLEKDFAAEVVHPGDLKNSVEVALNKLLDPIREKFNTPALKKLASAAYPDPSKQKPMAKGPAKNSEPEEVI

[3] = target: T1, PfYRS; assay: biochemical; type: binding
Method: (§1) 804 An intron was detected in the PftRNATyr sequence, that was not indicated in PlasmoDB. A T7 RNA
(§2) 805 polymerase promoter sequence was added to the 5’ end of the DNA sequence of P. falciparum and H.
(§3) 806 sapiens tRNATyr. This DNA template and its complementary strand were custom-synthesized by Sigma-
(§4) 807 Aldrich. Two oligonucleotides were annealed at 95°C for 5 min and the double-stranded DNA template
(§5) 808 was used for in vitro transcription. The transcription reaction was incubated at 37°C overnight. The reaction
(§6) 809 mixture consists of template DNA, T7 RNA polymerase and NTP mix as per manufacturer's instructions
(§7) 810 (HiScribe™ T7 Quick High Yield RNA Synthesis Kit, NEB). On the following day, the reaction mixture
(§8) 811 was treated with DNase I at 37°C for 15 min. tRNA was purified using RNA clean-up spin columns
(§9) 812 (Monarch® RNA Cleanup Kit, NEB) to remove contaminants from the transcription reaction.
(§10) 814 Differential scanning fluorimetry (DSF)
(§11) 815 PfYRS and HsYRS at 0.1 mg/ml were incubated with various substrates at 37°C for 1-3 h. PfYRS was
(§12) 816 assayed in 25 mM Tris, pH 8, 150 mM NaCl, 5 mM MgCl2 and 1 mM TCEP. HsYRS was assayed in 50
(§13) 817 mM Tris, pH 7.5, 150 mM NaCl, 50 mM KCl, 5 mM MgCl2 and 1 mM TCEP. SYPRO Orange (Sigma-
(§14) 818 Aldrich; 5,000X concentrate in DMSO) was added to the reaction mixture at a final concentration of 2.5X.
(§15) 819 25 µL of the sample was added into each well of a 96-well qPCR plate (Applied Biosystems). The plate
(§16) 820 was sealed and analysed using StepOnePlus Real-Time PCR system (Applied Biosystems). The samples
(§17) 821 were heated from 20°C to 90°C with a 1% continuous gradient. The thermal unfolding curve was plotted
(§18) 822 as the first derivative curve of the raw fluorescence values. The melting temperature (Tm), defined as the
(§19) 823 peak of the first derivative curve, was used to assess the thermal stability of protein-ligand complexes. KD
(§20) 824 values were calculated from DTm using the equation: ln(KD/[L]) = -131.5 x (∆Tm/Tm,apo) - 1.9, where [L]
(§21) 825 is the concentration of ligand and T is the temperature in Kelvin (40). […]

[4] = target: PfYRSS234C (Plasmodium falciparum, UniProt Q8IAR7, S234C); assay: biochemical; type: binding
PfYRSS234C, sequence (Q8IAR7 whole entry S234C): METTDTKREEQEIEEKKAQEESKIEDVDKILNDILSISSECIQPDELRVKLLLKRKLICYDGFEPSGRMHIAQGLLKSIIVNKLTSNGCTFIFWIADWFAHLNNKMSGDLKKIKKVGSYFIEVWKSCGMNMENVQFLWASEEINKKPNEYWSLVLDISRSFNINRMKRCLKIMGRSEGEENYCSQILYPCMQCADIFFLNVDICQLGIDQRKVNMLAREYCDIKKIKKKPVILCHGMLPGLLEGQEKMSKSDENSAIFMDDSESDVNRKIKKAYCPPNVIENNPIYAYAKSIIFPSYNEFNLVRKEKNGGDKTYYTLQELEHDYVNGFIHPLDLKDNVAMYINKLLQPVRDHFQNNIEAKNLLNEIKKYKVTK
Method: as §1, §2, §3, §4, §5, §6, §7, §8, §9, §10, §11, §12, §13, §14, §15, §16, §17, §18, §19, §20, §21

[5] = test system: P. falciparum (3D7); assay: P. falciparum (3D7) culture growth inhibition, 72 h; type: cell-based, Plasmodium falciparum; details: Plasmodium falciparum, 3D7, 72 h, read-out: Pf3D7 IC50(72h)
Method: (1 picture or pasted object on this page, not shown here)
553 Sigma-Aldrich) for 48-72 h. For drug pulse assays, tightly synchronized parasites (1-1.5% parasitemia,
554 0.2% final hematocrit) were added to the plates and incubated for 3 h. Drugs were removed and the
555 parasitemia assessed in the trophozoite stage of the next cycle.
557 Compounds were tested against a range of drug resistant field isolates and laboratory strains using a
558 modified [3H]-hypoxanthine incorporation assay, as previously reported (46). Field isolates 7G8, Cam3.1,
559 Dd2, K1, TM90C2B and NF54 were obtained from MR4 (www.beiresources.org).
561 Mammalian cell culture experiments
562 The HepG2 (Human hepatocyte carcinoma) cell line was procured from ATCC (American Type
563 Culture Collection, Manassas, USA; HB-8065) and viability assessed using Cell Titer-GLO luminescent
564 cell viability assay reagents (Promega, catalogue number: G7570) (47, 48). For the assay, 2000 cells/well
565 were plated in 384-well plates 24 h prior to the experiment and incubated at 37°C in a CO2 incubator. The
566 medium was removed and cells were treated with fresh medium containing either vehicle (0.5% DMSO)
567 or serially diluted test compounds or doxorubicin (1.3 nM to 25 µM) in a final volume of 50 µl/well and
568 further incubated for 72 h at 37°C in a CO2 incubator.
569 were treated with 5 µl of 1% Triton X-100 (final assay conc. 0.1%). Following incubation, 25 µl of medium
570 was discarded and 25 µl of Cell Titer-GLO reagent was added to each well and the plate was kept on a plate
571 shaker for 15 min at 25°C with shaking at 300 rpm. Luminescence signals were measured in a Spectramax
572 M5 reader (Molecular Devices).
(§22) 574 H1650 is a human lung cancer derived ATG7-null cell line (49) that can be used to assess effects on targets
(§23) 576 adenocarcinoma; bronchoalveolar carcinoma). Other cells lines used are: H460 (NCI-H460; human lung;
(§24) 577 carcinoma; large cell lung cancer; ATCC: HTB-177); and HCT116 (human colon; colorectal carcinoma;
(§25) 578 ATCC: CCL-247; Lot : 5056139). Each of the cell lines was received from the American Type Culture
(§26) 579 Collection (ATCC) and passaged twice before freezing. Cells were cultured in the presence or absence of
(§27) 580 inhibitors and cell viability was assessed by comparing the ATP content in compound-treated wells with
581 that in DMSO-treated wells as previously described (11).
583 HeLa cells (human cervical adenocarcinoma; genome sequenced (Garvin Institute, Australia) and verified

[6] = test system: H1650; assay: H1650 cell viability (ATP content); type: cell-based; details: Homo sapiens, NCI-H1650, 72 h, read-out: H1650 IC50(72h)
Method: as §22, §23, §24, §25, §26, §27
(§28) 581 that in DMSO-treated wells as previously described (11). […]
(§29) 585 37°C humidified incubator as adherent semi-confluent monolayers in complete Dulbecco’s Modified Eagle
(§30) 586 Media (c-DMEM). DMEM (Gibco™, Thermo Fisher Scientific, Australia) was supplemented with 10%

[7] = test system: H460; assay: H460 cell viability (ATP content); type: cell-based; details: Homo sapiens, NCI-H460, 72 h, read-out: H460 IC50(72h)
Method: as §22, §23, §24, §25, §26, §27, §28, §29, §30

[8] = test system: HCT116; assay: HCT116 cell viability (ATP content); type: cell-based; details: Homo sapiens, HCT-116, 72 h, read-out: HCT116 IC50(72h)
Method: as §22, §23, §24, §25, §26, §27, §28, §29, §30

[9] = test system: eIF2α phosphorylation in P. falciparum; assay: Western blot for phosphorylated-eIF2α; type: cell-based, Plasmodium falciparum; details: wildtype P. falciparum cultures
Method: Synchronous ring-stage YRScyt conditional knockdown line and the aptamer-regulatable control
700 the drug plate. Lowest drug treatment and a lethal dose of chloroquine (200 nM) served as reference
Two guide RNAs (gRNA1: […] and gRNA2:
Ring-stage P. falciparum parasites (Dd2 strain) at 10%
Using a modification of a published procedure (14), the
722 cells were labelled with O-propargyl-puromycin (OPP; 4 µM) for 1 h, washed 3x (PBS +3% serum) and
Flow cytometry was performed
730 hematocrit and 5% parasitemia. The RBC pellet was washed 3 x in PBS + cOmplete. Cells were centrifuged
The wash with PBS + cOmplete and
The pellet was resuspended in Bolt LDS sample
The samples were vortexed for 10 min at room temperature.
Secondary antibodies: goat
740 anti-rabbit IgG-peroxidase (Sigma-Aldrich-A0545; 1:20 000), goat anti-mouse IgG-peroxidase (Chemicon-
Chemiluminescence was detected using the Bio-Rad ChemiDocTM MP imaging
For the human mature YRS construct,
The YRS sequences were codon optimized for E. coli,
The vector was transformed into
PfYRS, PfYRSS234C and HsYRS were induced
Cell pellets were resuspended in 40 mL lysis
Cells were lysed by sonication (Microtip, QSonica)
The supernatant was applied to a 5
757 mL HisTrap HP column (GE Healthcare) and washed with 50 mL binding buffer containing 50 mM Tris-
His-YRS was eluted using a 0-500 mM
The eluted His-YRS was dialyzed overnight at 4°C
760 against 50 mM Tris-HCl, pH 8, 500 mM NaCl, 30 mM imidazole, 1 mM TCEP with the addition of His-
Cleaved His tags from His-YRS and TEV
YRS was further purified by gel filtration using a HiLoad 16/600 Superdex 200 column (GE

T1 sequence (Q8IAR7 entry or part of it): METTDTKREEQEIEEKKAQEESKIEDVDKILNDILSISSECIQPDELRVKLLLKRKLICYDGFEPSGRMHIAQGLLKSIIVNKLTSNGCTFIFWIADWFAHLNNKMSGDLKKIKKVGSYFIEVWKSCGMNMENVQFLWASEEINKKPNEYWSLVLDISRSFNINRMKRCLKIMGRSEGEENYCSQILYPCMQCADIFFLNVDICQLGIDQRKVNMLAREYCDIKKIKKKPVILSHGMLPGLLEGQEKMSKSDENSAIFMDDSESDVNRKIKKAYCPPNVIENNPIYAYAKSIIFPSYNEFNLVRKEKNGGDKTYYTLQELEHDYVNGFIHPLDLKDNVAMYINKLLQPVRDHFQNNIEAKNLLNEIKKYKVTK

SMILES	IC50 [1] [µM]	IC50 [2] [µM]	Kd [3] [µM]	Tm ([3]; PfYRS 2.3 μM, after incubation at 37°C for 3 h) [oC]	DTm ([3]; PfYRS, versus apo) [oC]	Kd [4] [µM]	Tm ([4]; PfYRSS234C 2.3 μM, after incubation at 37°C for 3 h) [oC]	IC50 [5] [µM]	IC50 [6] [µM]	IC50 [7] [µM]	IC50 [8] [µM]	eIF2α phosphorylation [9]
Nc1ncnc2c1c(OC(F)F)nn2C1OC(COS(=O)(=O)NC(=O)C(N)Cc2ccc(O)cc2)C(O)C1O (stereo not drawn) [ML901-Tyr]	1.6	23	0.0007	65.1 ± 0.1	14.9	0.0039	59.7 ± 0.3	–	–	–	–	–
Nc1ncnc2c1ncn2[C@@H]1O[C@H](COS(N)(=O)=O)[C@@H](O)[C@H]1O [AMS, adenosine 5′-sulfamate, reference compound]	–	–	–	–	–	–	–	0.0018	0.14	0.025 ± 0.007	0.026	triggers eIF2α phosphorylation
